Our source for the IC50 values is patent US11236069B2, “KIF18A inhibitors” (AMGEN INC., priority 2018, dated 2022).

Molecules are shown by their SMILES.

The target of the assay is Recombinant human KIF18A (1-467 His-tagged) protein (Homo sapiens (Human), UniProt Q8NI77). Kind of assay: KIF18A Enzyme Assay: microtubule-stimulated ATPase activity (ADP-Glo). To be noted: read-out: KIF18A ATPase IC50; 30 nM KIF18A, 30 μg/mL pig microtubules, ATP at Km 75 μM, ADP-Glo luminescence.
Chain of Recombinant human KIF18A (1-467 His-tagged) protein (Q8NI77 1-467): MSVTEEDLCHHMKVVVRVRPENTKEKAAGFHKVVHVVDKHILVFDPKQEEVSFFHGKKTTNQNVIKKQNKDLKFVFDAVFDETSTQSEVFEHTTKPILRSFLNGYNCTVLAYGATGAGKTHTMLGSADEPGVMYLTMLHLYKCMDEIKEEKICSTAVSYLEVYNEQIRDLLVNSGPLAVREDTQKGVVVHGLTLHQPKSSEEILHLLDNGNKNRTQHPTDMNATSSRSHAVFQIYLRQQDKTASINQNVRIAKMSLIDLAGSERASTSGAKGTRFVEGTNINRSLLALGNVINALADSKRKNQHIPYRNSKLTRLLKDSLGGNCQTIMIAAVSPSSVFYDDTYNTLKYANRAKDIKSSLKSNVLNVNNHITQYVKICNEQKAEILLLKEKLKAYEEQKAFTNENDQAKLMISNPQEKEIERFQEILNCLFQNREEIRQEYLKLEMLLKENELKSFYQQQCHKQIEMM
Chain of Recombinant human KIF18A (1-467 His-tagged) protein (P02550 whole entry partner): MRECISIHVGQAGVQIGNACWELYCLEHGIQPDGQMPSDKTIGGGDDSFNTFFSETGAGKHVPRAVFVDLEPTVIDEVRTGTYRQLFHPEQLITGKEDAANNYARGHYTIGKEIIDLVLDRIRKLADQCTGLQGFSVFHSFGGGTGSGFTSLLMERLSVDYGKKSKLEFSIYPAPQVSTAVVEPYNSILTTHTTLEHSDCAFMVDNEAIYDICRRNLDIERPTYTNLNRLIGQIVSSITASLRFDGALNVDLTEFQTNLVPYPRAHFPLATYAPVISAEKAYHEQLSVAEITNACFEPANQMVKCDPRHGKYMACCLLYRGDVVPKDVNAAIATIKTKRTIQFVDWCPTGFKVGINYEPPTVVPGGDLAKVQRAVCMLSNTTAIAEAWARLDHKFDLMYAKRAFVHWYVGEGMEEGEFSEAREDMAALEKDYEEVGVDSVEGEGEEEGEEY
Chain of Recombinant human KIF18A (1-467 His-tagged) protein (P02554 whole entry partner): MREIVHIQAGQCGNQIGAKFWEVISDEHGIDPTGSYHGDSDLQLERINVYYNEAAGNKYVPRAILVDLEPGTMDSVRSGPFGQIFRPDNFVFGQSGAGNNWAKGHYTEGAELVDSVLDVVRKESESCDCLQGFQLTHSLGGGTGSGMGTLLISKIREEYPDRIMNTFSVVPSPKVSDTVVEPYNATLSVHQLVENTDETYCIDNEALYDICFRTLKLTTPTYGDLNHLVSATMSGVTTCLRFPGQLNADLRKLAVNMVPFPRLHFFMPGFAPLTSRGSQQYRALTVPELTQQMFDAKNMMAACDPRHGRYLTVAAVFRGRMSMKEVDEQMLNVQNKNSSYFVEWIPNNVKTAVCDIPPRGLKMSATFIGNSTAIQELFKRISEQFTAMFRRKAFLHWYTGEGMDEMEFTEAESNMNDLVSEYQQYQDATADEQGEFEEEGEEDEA
Source text: KIF18A Enzyme Assay: Microtubule-stimulated ATPase activity assay is used to measure KIF18A enzyme activity after treatment with compound. Compounds were 2-fold serially diluted in DMSO (Sigma Inc) over 22-point concentration range. […] The assay measures ADP formed from the ATPase reaction.
For the compound `Cc1cc(NC(=O)c2ccc(NS(=O)(=O)CCO)cc2N2CCC3(CC2)CC3)nc(N2CC(O)(C(F)(F)F)C2)n1` [Example 11-18, N-(2-(3-Hydroxy-3-(trifluoromethyl)azetidin-1-yl)-6-methylpyrimidin-4-yl)-4-((2-hydroxyethyl)sulfonamido)-2-(6-azaspiro[2.5]octan-6-yl)benzamide], the IC50 is 64 nM. Then `Cc1cc(NC(=O)c2ccc(NS(=O)(=O)CCO)cc2N2CCC3(CC2)CC3)nc(N2CCC2)n1` [Example 11-19, N-(2-(Azetidin-1-yl)-6-methylpyrimidin-4-yl)-4-((2-hydroxyethyl)sulfonamido)-2-(6-azaspiro[2.5]octan-6-yl)benzamide], with 205 nM; and `Cc1cc(NC(=O)c2ccc(NS(=O)(=O)CCO)cc2N2CCC3(CC2)CC3)nc(N2CC(O)C2)n1` [Example 11-20, N-(2-(3-Hydroxyazetidin-1-yl)-6-methylpyrimidin-4-yl)-4-((2-hydroxyethyl)sulfonamido)-2-(6-azaspiro[2.5]octan-6-yl)benzamide], with 48.3 nM. Consider `Cc1cc(NC(=O)c2ccc(NS(=O)(=O)CCO)cc2N2CCC3(CC2)CC3)nc(N2CC([C@H](C)O)C2)n1` [Example 11-21, (S)-N-(2-(3-(1-Hydroxyethyl)azetidin-1-yl)-6-methylpyrimidin-4-yl)-4-((2-hydroxyethyl)sulfonamido)-2-(6-azaspiro[2.5]octan-6-yl)benzamide], for which the IC50 was determined as 704 nM. On to `Cc1cc(NC(=O)c2ccc(NS(=O)(=O)C3CC3)cc2N2CCC3(CC2)CC3)nc(N2CC(F)(F)C2)n1` [Example 11-22, 4-(Cyclopropanesulfonamido)-N-(2-(3,3-difluoroazetidin-1-yl)-6-methylpyrimidin-4-yl)-2-(6-azaspiro[2.5]octan-6-yl)benzamide], for which the IC50 amounted to 788 nM. As for `Cc1cc(NC(=O)c2ccc(NS(=O)(=O)C3COC3)cc2N2CCC3(CC2)CC3)nc(N2CC(F)(F)C2)n1` [Example 11-23, N-(2-(3,3-Difluoroazetidin-1-yl)-6-methylpyrimidin-4-yl)-4-(oxetane-3-sulfonamido)-2-(6-azaspiro[2.5]octan-6-yl)benzamide], the IC50 was 48.9 nM.

As to `Cc1cc(NC(=O)c2ccc(NS(C)(=O)=O)cc2N2CCC3(CC2)CC3)nc(N2CC(F)(F)C2)n1` [Example 11-24, N-(2-(3,3-Difluoroazetidin-1-yl)-6-methylpyrimidin-4-yl)-4-(methylsulfonamido)-2-(6-azaspiro[2.5]octan-6-yl)benzamide], the IC50 was 55.1 nM.

Consider `Cc1cc(NC(=O)c2ccc(NS(=O)(=O)CCO)cc2N2CCC3(CC2)CC3)nc(N2CCC3(CC3)C2)n1` [Example 11-25, 4-((2-Hydroxyethyl)sulfonamido)-N-(6-methyl-2-(5-azaspiro[2.4]heptan-5-yl)pyrimidin-4-yl)-2-(6-azaspiro[2.5]octan-6-yl)benzamide], for which the IC50 came out at 17.6 nM. Consider `Cc1cc(NC(=O)c2ccc(NS(=O)(=O)CCO)cc2N2CCC3(CC2)CC3)nc(N2CCCC2)n1` [Example 11-26, 4-((2-Hydroxyethyl)sulfonamido)-N-(6-methyl-2-(pyrrolidin-1-yl)pyrimidin-4-yl)-2-(6-azaspiro[2.5]octan-6-yl)benzamide], for which the concentration for half-maximal inhibition (IC50) turned out to be 71.6 nM. Turning to `Cc1cc(NC(=O)c2ccc(NS(=O)(=O)CCO)cc2N2CCC3(CC2)CC3)nc(N2CC[C@@](C)(F)C2)n1` [Example 11-27, (R)-N-(2-(3-Fluoro-3-methylpyrrolidin-1-yl)-6-methylpyrimidin-4-yl)-4-((2-hydroxyethyl)sulfonamido)-2-(6-azaspiro[2.5]octan-6-yl)benzamide], the IC50 worked out at 20 nM.

Take `Cc1cc(NC(=O)c2ccc(NS(=O)(=O)CCO)cc2N2CCC3(CC2)CC3)nc(N2CCC3CC32)n1` (centres unmarked) [Example 11-28, N-(2-(2-Azabicyclo[3.1.0]hexan-2-yl)-6-methylpyrimidin-4-yl)-4-((2-hydroxyethyl)sulfonamido)-2-(6-azaspiro[2.5]octan-6-yl)benzamide]: the IC50 turned out to be 59 nM. On to `Cc1cc(NC(=O)c2ccc(NS(=O)(=O)CCO)cc2N2CCC3(CC2)CC3)nc(N2C[C@H]3C[C@H]3C2)n1` [Example 11-29, N-(2-((1R,5S)-3-Azabicyclo[3.1.0]hexan-3-yl)-6-methylpyrimidin-4-yl)-4-((2-hydroxyethyl)sulfonamido)-2-(6-azaspiro[2.5]octan-6-yl)benzamide], for which the IC50 came out at 20 nM. `Cc1cc(NC(=O)c2ccc(NS(=O)(=O)CCO)cc2N2CCC3(CC2)CC3)nc(N2CCC(F)(F)C2)n1` [Example 11-30, N-(2-(3,3-Difluoropyrrolidin-1-yl)-6-methylpyrim-4-yl)-4-((2-hydroxyethyl)sulfonamido)-2-(6-azaspiro[2.5]octan-6-yl)benzamide]: the IC50 was found to be 33 nM.

As for `Cc1cc(NC(=O)c2ccc(NS(=O)(=O)CCO)cc2N2CCC3(CC2)CC3)nc(N2CCC3(CC2)CC3)n1` [Example 11-31, 4-((2-Hydroxyethyl)sulfonamido)-N-(6-methyl-2-(6-azaspiro[2.5]octan-6-yl)pyrimidin-4-yl)-2-(6-azaspiro[2.5]octan-6-yl)benzamide], the IC50 turned out to be 146 nM. As for `Cc1cc(NC(=O)c2ccc(NS(=O)(=O)CCO)cc2N2CCC3(CC2)CC3)nc(N2CC3C[C@]3(O)C2)n1` (stereo partly drawn) [Example 11-32, N-(2-((1R)-1-Hydroxy-3-azabicyclo[3.1.0]hexan-3-yl)-6-methylpyrimidin-4-yl)-4-((2-hydroxyethyl)sulfonamido)-2-(6-azaspiro[2.5]octan-6-yl)benzamide], the IC50 amounted to 193 nM. In the case of `Cc1cc(NC(=O)c2ccc(NS(=O)(=O)CCO)cc2N2CCC3(CC2)CC3)nc(N2CCC(C#N)CC2)n1` [Example 11-33, N-(2-(4-Cyanopiperidin-1-yl)-6-methylpyrimidin-4-yl)-4-((2-hydroxyethyl)sulfonamido)-2-(6-azaspiro[2.5]octan-6-yl)benzamide], the IC50 stood at 88 nM. As for `Cc1cc(NC(=O)c2ccc(NS(=O)(=O)CCO)cc2N2CCC3(CC2)CC3)nc(N2CCC[C@@H](C#N)C2)n1` [Example 11-34, (R)-N-(2-(3-Cyanopiperidin-1-yl)-6-methylpyrimidin-4-yl)-4-((2-hydroxyethyl)sulfonamido)-2-(6-azaspiro[2.5]octan-6-yl)benzamide], the IC50 worked out at 92 nM. Turning to `Cc1cc(NC(=O)c2ccc(NS(=O)(=O)CCO)cc2N2CCC3(CC2)CC3)nc(N2CCC[C@H](C#N)C2)n1` [Example 11-35, (S)-N-(2-(3-Cyanopiperidin-1-yl)-6-methylpyrimidin-4-yl)-4-((2-hydroxyethyl)sulfonamido)-2-(6-azaspiro[2.5]octan-6-yl)benzamide], the IC50 was found to be 43 nM. For `Cc1cc(NC(=O)c2ccc(NS(=O)(=O)CCO)cc2N2CCC3(CC2)CC3)nc(N2CCCCC2)n1` [Example 11-36, 4-((2-Hydroxyethyl)sulfonamido)-N-(6-methyl-2-(piperidin-1-yl)pyrimidin-4-yl)-2-(6-azaspiro[2.5]octan-6-yl)benzamide], the IC50 was found to be 82 nM. Then `Cc1cc(NC(=O)c2ccc(NS(=O)(=O)CCO)cc2N2CCC3(CC2)CC3)nc(N2CCC(O)CC2)n1` [Example 11-37, 4-((2-Hydroxyethyl)sulfonamido)-N-(2-(4-hydroxypiperidin-1-yl)-6-methylpyrimidin-4-yl)-2-(6-azaspiro[2.5]octan-6-yl)benzamide], with 144 nM.
